Source: the NIST ThermoML archive (doi:10.1016/j.jct.2009.07.014)
Numbers after ± are expanded uncertainties.

Experiment: excess molar enthalpy (molar enthalpy of mixing); xn = mol fraction of the nth substance listed
Conditions: 101.3 kPa, Liquid, Flow calorimetry

CCCCO [butan-1-ol] + CCCCCCC
excess molar enthalpy (298.15 K, x2 = 0.0502): 0.0176 ± 0.000741 kcal/mol | excess molar enthalpy (298.15 K, x2 = 0.0999): 0.0352 ± 0.00098 kcal/mol | excess molar enthalpy (298.15 K, x2 = 0.1504): 0.0519 ± 0.00129 kcal/mol | excess molar enthalpy (298.15 K, x2 = 0.2): 0.0674 ± 0.00158 kcal/mol | excess molar enthalpy (298.15 K, x2 = 0.2498): 0.0823 ± 0.00186 kcal/mol | excess molar enthalpy (298.15 K, x2 = 0.2998): 0.096 ± 0.00215 kcal/mol | excess molar enthalpy (298.15 K, x2 = 0.3497): 0.108 ± 0.00239 kcal/mol | excess molar enthalpy (298.15 K, x2 = 0.4004): 0.119 ± 0.00263 kcal/mol | excess molar enthalpy (298.15 K, x2 = 0.4496): 0.129 ± 0.00287 kcal/mol | excess molar enthalpy (298.15 K, x2 = 0.5001): 0.137 ± 0.00311 kcal/mol | excess molar enthalpy (298.15 K, x2 = 0.5498): 0.144 ± 0.00311 kcal/mol | excess molar enthalpy (298.15 K, x2 = 0.5996): 0.148 ± 0.00311 kcal/mol | excess molar enthalpy (298.15 K, x2 = 0.6504): 0.149 ± 0.00311 kcal/mol | excess molar enthalpy (298.15 K, x2 = 0.6999): 0.147 ± 0.00311 kcal/mol | excess molar enthalpy (298.15 K, x2 = 0.7501): 0.143 ± 0.00311 kcal/mol | excess molar enthalpy (298.15 K, x2 = 0.7998): 0.135 ± 0.00287 kcal/mol | excess molar enthalpy (298.15 K, x2 = 0.8502): 0.125 ± 0.00263 kcal/mol | excess molar enthalpy (298.15 K, x2 = 0.8998): 0.11 ± 0.00239 kcal/mol | excess molar enthalpy (298.15 K, x2 = 0.9497): 0.0863 ± 0.00203 kcal/mol | excess molar enthalpy (313.15 K, x2 = 0.0502): 0.0246 ± 0.00098 kcal/mol | excess molar enthalpy (313.15 K, x2 = 0.1): 0.049 ± 0.00134 kcal/mol | excess molar enthalpy (313.15 K, x2 = 0.1505): 0.0727 ± 0.00177 kcal/mol | excess molar enthalpy (313.15 K, x2 = 0.2001): 0.0944 ± 0.00217 kcal/mol | excess molar enthalpy (313.15 K, x2 = 0.2499): 0.115 ± 0.00263 kcal/mol | excess molar enthalpy (313.15 K, x2 = 0.2999): 0.134 ± 0.00287 kcal/mol | excess molar enthalpy (313.15 K, x2 = 0.3498): 0.151 ± 0.00335 kcal/mol | excess molar enthalpy (313.15 K, x2 = 0.4004): 0.166 ± 0.00359 kcal/mol | excess molar enthalpy (313.15 K, x2 = 0.4496): 0.179 ± 0.00382 kcal/mol | excess molar enthalpy (313.15 K, x2 = 0.5002): 0.19 ± 0.00406 kcal/mol | excess molar enthalpy (313.15 K, x2 = 0.5499): 0.198 ± 0.0043 kcal/mol | excess molar enthalpy (313.15 K, x2 = 0.5997): 0.202 ± 0.0043 kcal/mol | excess molar enthalpy (313.15 K, x2 = 0.6505): 0.204 ± 0.0043 kcal/mol | excess molar enthalpy (313.15 K, x2 = 0.6999): 0.202 ± 0.0043 kcal/mol | excess molar enthalpy (313.15 K, x2 = 0.7501): 0.197 ± 0.0043 kcal/mol | excess molar enthalpy (313.15 K, x2 = 0.7998): 0.189 ± 0.00406 kcal/mol | excess molar enthalpy (313.15 K, x2 = 0.8502): 0.175 ± 0.00382 kcal/mol | excess molar enthalpy (313.15 K, x2 = 0.8997): 0.155 ± 0.00359 kcal/mol | excess molar enthalpy (313.15 K, x2 = 0.9497): 0.121 ± 0.00287 kcal/mol
